According to patent US10544460B2, “Homeobox transcription factor ventx regulates differentiation and maturation of human dendritic cells” (priority 2013, dated 2020):

Key:
VentX [1] = experiment: VentX knockdown efficiency in monocytes / monocyte-derived DCs; assay type: cell-based, human; conditions: 5 days after transfection
Text: Following a recent finding that VentX is expressed in human primary monocytes, VentX expression was examined during primary monocytes to dendritic cells differentiation induced by GM-CSF and IL-4 treatment. […] To explore potential role of VentX in DC differentiation, the effects of VentX knockdown on in vitro DCs differentiation were examined. […] (Iwamoto, et al. 2007 J Immunol 179(3): p. 1449-57; Gabriele, et al. 2004 Blood 103(3): p. 980-7.) To obtain a long-lasting knockdown effect of VentX in monocytes, a morpholino (MO) mediated VentX knockdown strategy was developed. Two different morpholino antisense oligonucleotides were designed (VentX MO and VentX MO-2) and tested for the knockdown efficiency of VentX. […] Freshly isolated CD14^+CD1a^− monocytes differentiate in vitro into immature CD14^−CD1a^+ DCs when cultured with GM-CSF and IL-4. […] To corroborate the role of VentX in regulating DCs differentiation, VentX was ectopically expressed in primary monocytes and the CD14^−CD1a^+ cells were determined after 3 days of cytokines treatment. […]
(§1) Dendritic & Antigen Presenting Cell PCR Array was purchased from SABiosciences (Valencia, Calif.). […] (Wu, et al. 2011 J Clin Invest 121(7): p. 2599-613.) Incorporated BrdU was detected with PE-conjugated anti-BrdU antibody and analyzed with flow cytometry.

human primary monocytes = experiment: Primary monocyte to dendritic cell differentiation induced by GM-CSF and IL4 (flow cytometry of surface antigens); assay type: cell-based
Description: Peripheral blood mononuclear cells (PBMC) from healthy adult donors at Dana-Farber Cancer Institute were isolated by Ficoll density gradient centrifugation. CD14^+ monocytes were purified from PBMCs using anti-CD14 antibody coated magnetic microbeads (Miltenyi Biotec, Auburn, Calif.). Monocytes were cultured in 12-well plates at 1×10^6 cells/ml with RPMI 1640 medium containing 10% fetal bovine serum (FBS), GM-CSF (100 ng/ml) and IL4 (20 ng/ml) (PeproTech, Rocky Hill, N.J.). Cytokines were added to cultures every 2 or 3 days for a total of 5 days to induce dendritic cells differentiation. Neutralizing antibody against IL6 was purchased from R&D Systems (Minneapolis, Minn.) and used at daily dose of 2.5 μg/ml. Intestinal mucosa was obtained from surgically resected specimens from patients diagnosed with inflammatory bowel diseases including Crohn's disease and ulcerative colitis. Specimens were taken from both inflamed and non-inflamed mucosa and were confirmed macroscopically and microscopically. Lamina propria mononuclear cells were isolated using previously described techniques. (Dillon, et al. 2010 J Immunol 184(12): p. 6612-21; Kamada, et al. 2008 J Clin Invest 118(6): p. 2269-80.) LPDCs were purified as the fraction of CD19^−CD1c^+ cells with magnetic microbeads (Miltenyi Biotec). To promote maturation of DCs, 100 ng/ml of E Coli LPS (Sigma-Aldrich) was added to the medium and further cultured for 24 hours. Experiments with human materials were performed in accordance with guidelines approved by the institutional review committee of Brigham and Women's Hospital. […]
(§2) Phenotypic analyses of DCs and THP1 cells were performed with flow cytometry after immunostaining of cells with fluorescence dye conjugated antibodies (eBioscience, San Diego, Calif.). […] Stained cells were analyzed with FACScan flow cytometer (BD Bioscience) using FlowJo software. Results are expressed as the percentage of positive cells or mean fluorescence intensity (MFI) values after subtraction of the MFI obtained from the isotype control antibody.

DCs = assay type: cell-based, human; conditions: after MO transfection; data not shown
Text: Following a recent finding that VentX is expressed in human primary monocytes, VentX expression was examined during primary monocytes to dendritic cells differentiation induced by GM-CSF and IL-4 treatment. […] To explore potential role of VentX in DC differentiation, the effects of VentX knockdown on in vitro DCs differentiation were examined. […] (Iwamoto, et al. 2007 J Immunol 179(3): p. 1449-57; Gabriele, et al. 2004 Blood 103(3): p. 980-7.) To obtain a long-lasting knockdown effect of VentX in monocytes, a morpholino (MO) mediated VentX knockdown strategy was developed. Two different morpholino antisense oligonucleotides were designed (VentX MO and VentX MO-2) and tested for the knockdown efficiency of VentX. […] Freshly isolated CD14^+CD1a^− monocytes differentiate in vitro into immature CD14^−CD1a^+ DCs when cultured with GM-CSF and IL-4. (Bell, et al. 2001 J Immunol 166(8): p. 4958-67.) Surface expression of CD1a antigen was examined in monocytes transfected with control MO or VentX MO respectively. […] To corroborate the role of VentX in regulating DCs differentiation, VentX was ectopically expressed in primary monocytes and the CD14^−CD1a^+ cells were determined after 3 days of cytokines treatment. Overexpression of VentX in monocytes greatly accelerated the DCs differentiation (FIG. 1E-F).

IL6 = experiment: Cytokine expression in transfected monocytes (reverse transcription PCR and intracellular staining); assay type: cell-based, human
Description: To elucidate the mechanisms underlying VentX regulated DCs differentiation and maturation, expression level of cytokines known to be important for DCs development was analyzed by reverse transcription PCR and intracellular staining. […] It has been shown that IL6 inhibits DC differentiation and maturation from both CD14^+ monocytes and CD34^+ progenitor cells. […] The effect of VentX on the activity of […] IL6 promoter luciferase reporter and several deletion mutant constructs was assessed. […] To address this question, neutralizing antibody against IL6 was added to the culture medium of VentX MO transfected monocytes and differentiation of DCs was assessed through flow cytometry analysis of CD1a surface expression.
as §2, with “antibody. […]” for “antibody.”

VentX [2] = experiment: VentX expression in LPDCs treated with prednisolone (real time PCR); assay type: cell-based, human; conditions: prednisolone 10 μg/ml, 48 hours, vs mock treated; FIG. 6F
Description: (§3) FIG. 6: VentX is required for the maturation of lamina propria DCs. (A) LPDCs were isolated from inflamed and non-inflamed intestinal mucosa of five IBD patients. VentX level was determined with real time PCR. (B) LPDCs were transfected with siRNA targeting VentX or control GFP through electroporation followed by culturing in medium for two days. Then cells were stimulated with LPS for overnight to induce maturation and harvested for flow cytometry analysis of surface markers and intracellular cytokines/chemokines. Filled histograms indicate siGFP transfection. […] Results are expressed as the percentage of MFI normalized to control. […] (D) LPDCs transfected with siGFP or siVentX were analyzed for the mRNA expression levels of indicated genes. […] (F) DCs were treated with prednisolone (10 μg/ml) for 48 hours or mock treated, and VentX level was determined with real time PCR. […]
(§4) Aberrant activation of DCs has been implicated in mucosal inflammation in pathogenesis of inflammatory bowl diseases. […] VetnX expression levels in these DCs were determined by RT-PCR methods. […]
as §1

LPDCs = experiment: Pro-inflammatory cytokine mRNA in DCs treated with prednisolone and LPS; assay type: cell-based, human; conditions: prednisolone, LPS added 24 hours later, harvested at 48 hours, FIG. 6G
Description: as §3, §4, §1

Compound | VentX expression in DCs compared with control sequence (VentX [1]) | expression of CD16, CD36, CD64, mannose receptor (MR) and TLR4 (human primary monocytes; MO transfected DCs) | percentage of CD14-CD1a+ cells (human primary monocytes; monocytes + GM-CSF and IL4, 5 days, in comparison with control MO, FIG. 1A-B) | surface expression of CD1b, CD1c and CD11c (human primary monocytes; monocytes + GM-CSF and IL4, 5 days, vs control MO) | cell death in DCs (DCs) | IL1β, TNFα and IL10 expression (IL6; MO transfected cells, data not shown) | IL6 expression (IL6; monocytes + GM-CSF and IL4, 5 days, mRNA and intracellular level, FIGS. 3A and C) | VentX expression in LPDCs (VentX [2]) | expression of pro-inflammatory cytokines, such as the IL2, TNF, CCL5 (LPDCs)
5′-TACTCAACCCTGACATAGAGGGTAA-3′ (morpholino, further chemistry not given here) [VentX MO, Morpholino antisense oligonucleotide targeting VentX] | inhibited VentX expression | remained unchanged | substantial reduction | similarly downregulated | did not cause excess cell death | no apparent changes | consistently increased |  | 
5′-GAGCCCGGTTTGCATACACGGCTAA-3′ (morpholino, further chemistry not given here) [VentX MO-2, Morpholino antisense oligonucleotide targeting VentX] | inhibited VentX expression |  |  |  |  |  |  |  | 
C[C@]12C=CC(=O)C=C1CC[C@@H]1[C@@H]2[C@@H](O)C[C@@]2(C)[C@H]1CC[C@]2(O)C(=O)CO [prednisolone] |  |  |  |  |  |  |  | dramatically decreased | dramatically decreased
